In patent publication US6926936B2, “Ink-jet recording sheet with improved ozone resistance” (Felix Schoeller Jr. Foto-und Spezialpapiere GmbH & Co. KG, priority 2002, dated 2005):

Assay: Dissociation constant (Kb, pKb) of the water-soluble compounds
Excerpt: The following aqueous solutions were applied onto the dye-fixing layer.

O=C([O-])c1ccc(O)cc1.[Na+] [4-Hydroxybenzoic acid Na salt]
pKb: 12.1

O.O.O.O.O.O.O.O.O.[Na+].[Na+].[Na+].[S-]c1nc([S-])nc([S-])n1 [Trisodium trithiocyanurate nonahydrate]
pKb: 3 | Kb (dissociation constant): 1 × 10^−3
